According to patent US8835476B2, “Synthesis of novel antimicrobials” (priority 2005, dated 2014):
In brackets after ≈: the same amount, converted by molar mass. Where two headings read alike, the source gives them in different places.

Legend:
Format in all cases: cell-based
A. anitratus ATCC 19606 = test: Broth microdilution MIC, ATCC strains; conditions: Acinetobacter calcoaceticus, ATCC19606; A. anitratus ATCC 19606; read-out: MIC (growth inhibition, microdilution method)
From the text: (§1) All clinical isolates tested were from The North American Urinary Tract Infection Collaborative Alliance (NAUTICA) which is a UTI surveillance study involving 40 medical centres (30 from the US and 10 from Canada). Each centre submitted up to 50 consecutive outpatient midstream urine isolates. All isolates were deemed significant urinary tract pathogens by individual laboratory criteria and identified to the species level by each laboratory's existing protocol. Isolates were transported to the coordinating laboratory (Health Sciences Centre, Winnipeg, Canada) on charcoal swabs. Only one isolate per patient was accepted. Upon receipt, isolates were cultured by the coordinating laboratory, stocked in skim milk, and stored at −80° C. awaiting reference antibiotic susceptibility testing. Elementary demographic information was also compiled for each isolate. Isolates were selected randomly from the above pool to represent 18 different species of Enterobacteriaceae and non-Enterobacteriaceae. An average of 5 strains of each species were tested for a total of 93 organisms. In addition, 23 reference (ATCC) [both gram negative and gram positive] strains were tested.
(§2) Susceptibilities to the compounds were determined using the National Committee for Clinical Laboratory Standards (NCCLS) M7-A6 broth microdilution method. […] DMSO controls were incorporated into the panel to mimic the quantity of DMSO used in dissolving some of the compounds at the higher concentrations. Each final panel well volume was 100 μl with a bacterial inoculum of 5×10^5 colony forming units (CFU)/ml. Panels were read following 16 to 20 hours of incubation at 35° C. in ambient air. The minimum inhibitory concentration (MIC) was defined as the lowest concentration of antimicrobial inhibiting visible growth. Quality control (QC) was performed using four ATCC QC organisms that were run with every batch set up to insure reproducibility.

E. cloacae ATCC 23355 = test: Broth microdilution MIC, ATCC strains; conditions: Enterobacter cloacae
From the text: as §1, §2

E. coli ATCC 25922 = test: Broth microdilution MIC, ATCC strains; conditions: for MIC: Escherichia coli; for MIC (growth inhibition, microdilution method): E. coli ATCC 25922
From the text: as §1, §2

E. faecalis ATCC 29212 = test: Broth microdilution MIC, ATCC strains; conditions: for MIC: Enterococcus faecalis, read-out: MIC (growth inhibition, microdilution method)
From the text: as §1, §2

K. oxytoca ATCC 49131 = test: Broth microdilution MIC, ATCC strains; conditions: Klebsiella oxytoca
From the text: as §1, §2

K. pneumoniae ATCC 13883 = test: Broth microdilution MIC, ATCC strains; conditions: Klebsiella pneumoniae
From the text: as §1, §2

MRSA ATCC 33591 = test: Broth microdilution MIC, ATCC strains; conditions: Staphylococcus aureus, read-out: MIC (growth inhibition, microdilution method)
From the text: as §1, §2

P. mirabilis ATCC 29245 = test: Broth microdilution MIC, ATCC strains; conditions: Proteus mirabilis
From the text: as §1, §2

S. marcescens ATCC 8100 = test: Broth microdilution MIC, ATCC strains; conditions: Serratia marcescens
From the text: as §1, §2

[1] = test system: S. saprophyticus ATCC 15305; test: Broth microdilution MIC, ATCC strains; conditions: Staphylococcus saprophyticus
From the text: as §1, §2

S. warneri ATCC 27836 = test: Broth microdilution MIC, ATCC strains; conditions: Staphylococcus warneri, ATCC27836; S. warneri ATCC 27836; read-out: MIC (growth inhibition, microdilution method)
From the text: as §1, §2

P. rettgeri CAP = test: Broth microdilution MIC, reference strains; conditions: Providencia rettgeri, read-out: MIC (growth inhibition, microdilution method)
From the text: as §1, §2

[2] = test system: C. amalonaticus clinical isolates; test: Broth microdilution MIC, clinical isolate strains (NAUTICA); conditions: clinical isolates, one table line per isolate; unit assumed
From the text: as §1, §2

[3] = test system: C. freundii clinical isolates; test: as above; conditions: clinical isolates, one table line per isolate; in µg/mL (unit assumed)
From the text: as §1, §2

[4] = test system: C. koseril clinical isolates; test: as above; conditions: clinical isolates, one table line per isolate; unit assumed
From the text: as §1, §2

[5] = test system: E. aerogenes clinical isolates; test: as above; conditions: clinical isolates, one table line per isolate; unit assumed
From the text: as §1, §2

[6] = test system: E. cloacae clinical isolates; test: as above; conditions: clinical isolates, one table line per isolate; unit assumed
From the text: as §1, §2

[7] = test system: K. oxytoca clinical isolates; test: as above; conditions: clinical isolates, one table line per isolate; unit assumed
From the text: as §1, §2

[8] = test system: K. pneumoniae clinical isolates; test: as above; conditions: clinical isolates, one table line per isolate; unit assumed
From the text: as §1, §2

[9] = test system: M. morganii clinical isolates; test: as above; conditions: clinical isolates, one table line per isolate; unit assumed
From the text: as §1, §2

[10] = test system: P. mirabilis clinical isolates; test: as above; conditions: clinical isolates, one table line per isolate; unit assumed
From the text: as §1, §2

[11] = test system: P. vulgaris clinical isolates; test: as above; conditions: clinical isolates, one table line per isolate; unit assumed
From the text: as §1, §2

[12] = test system: S. liquifaciens clinical isolates; test: as above; conditions: clinical isolates, one table line per isolate; unit assumed
From the text: as §1, §2

[13] = test system: S. marcescens clinical isolates; test: as above; conditions: clinical isolates, one table line per isolate; unit assumed
From the text: as §1, §2

[14] = test system: A. baumanii clinical isolates; test: as above; conditions: clinical isolates, one table line per isolate; unit assumed
From the text: as §1, §2

[15] = test system: B. cepacia clinical isolates; test: as above; conditions: clinical isolates, one table line per isolate; unit assumed
From the text: as §1, §2

[16] = test system: P. retgerri clinical isolates; test: as above; conditions: clinical isolates, one table line per isolate; unit assumed
From the text: as §1, §2

[17] = test system: P. stuartii clinical isolates; test: as above; conditions: clinical isolates, one table line per isolate; unit assumed
From the text: as §1, §2

[18] = test system: S. maltophilia clinical isolates; test: as above; conditions: clinical isolates, one table line per isolate; unit assumed
From the text: as §1, §2

[19] = ATCC25922, E. coli ATCC 25922, read-out: MIC (growth inhibition, microdilution method)
[20] = ATCC29212, E. faecalis ATCC 29212
[21] = ATCC29212, E. faecalis, ATCC number not given
[22] = ATCC23355, E. cloacae ATCC 23355, read-out: MIC (growth inhibition, microdilution method)
[23] = ATCC49131, K. oxytoca ATCC 49131, read-out: MIC (growth inhibition, microdilution method)
[24] = ATCC13883, K. pneumoniae ATCC 13883, read-out: MIC (growth inhibition, microdilution method)
[25] = ATCC29245, P. mirabilis ATCC 29245, read-out: MIC (growth inhibition, microdilution method)
[26] = ATCC8100, S. marcescens ATCC 8100, read-out: MIC (growth inhibition, microdilution method)
[27] = ATCC15305, S. saprophyticus ATCC 15305, read-out: MIC (growth inhibition, microdilution method)

| Compound | MIC (A. anitratus ATCC 19606) [µg/mL] | MIC (E. coli ATCC 25922; [19]) [µg/mL] | MIC (E. faecalis ATCC 29212; [20]) [µg/mL] | MIC (E. faecalis ATCC 29212; [21]) [µg/mL] | MIC (S. warneri ATCC 27836) [µg/mL] | MIC, C. AMALONATICUS [2] [µg/mL] | MIC, C. FREUNDII [3] | MIC, C. KOSERI [4] [µg/mL] | MIC, E. AEROGENES [5] [µg/mL] | MIC, E. CLOACAE [6] [µg/mL] | MIC, K. OXYTOCA [7] [µg/mL] | MIC, K. PNEUMONIAE [8] [µg/mL] | MIC, M. MORGANII [9] [µg/mL] | MIC, P. MIRABILIS [10] [µg/mL] | MIC, S. LIQUEFACIENS [12] [µg/mL] | MIC, S. MARCESCENS [13] [µg/mL] | MIC (E. cloacae ATCC 23355; [22]) [µg/mL] | MIC (growth inhibition, microdilution method) (E. coli ATCC 25922) [µg/mL] | MIC (K. oxytoca ATCC 49131; [23]) [µg/mL] | MIC (K. pneumoniae ATCC 13883; [24]) [µg/mL] | other results |
| --- | --- | --- | --- | --- | --- | --- | --- | --- | --- | --- | --- | --- | --- | --- | --- | --- | --- | --- | --- | --- | --- |
| O=C(O)c1cc(-c2nnn[nH]2)c(C(=O)O)s1 [DNM-111, 3-(1H-tetrazol-5-yl)thiophene-2,5-dicarboxylic acid] | 64 (≈ 266 µM) | 64 (≈ 266 µM) | 8 (≈ 33.3 µM) | 8 (≈ 33.3 µM) | 256 (≈ 1070 µM) | 128 (≈ 533 µM) | 128 | 128 (≈ 533 µM) | 128 (≈ 533 µM) | 128 (≈ 533 µM) | 128 (≈ 533 µM) | 128 (≈ 533 µM) | 128 (≈ 533 µM) | 128 (≈ 533 µM) | 128 (≈ 533 µM) | 128 (≈ 533 µM) | – | – | – | – | MIC (E. cloacae ATCC 23355; ATCC23355, read-out: MIC (growth inhibition, microdilution method)): 128 µg/mL (≈ 533 µM); MIC (E. coli ATCC 25922; ATCC25922, read-out: MIC (growth inhibition, microdilution method)): 128 µg/mL (≈ 533 µM); MIC (K. oxytoca ATCC 49131; ATCC49131, read-out: MIC (growth inhibition, microdilution method)): 128 µg/mL (≈ 533 µM); MIC (K. pneumoniae ATCC 13883; ATCC13883, read-out: MIC (growth inhibition, microdilution method)): 128 µg/mL (≈ 533 µM); MIC (MRSA ATCC 33591): 128 µg/mL (≈ 533 µM); MIC (P. mirabilis ATCC 29245; ATCC29245, read-out: MIC (growth inhibition, microdilution method)): 128 µg/mL (≈ 533 µM); MIC (S. marcescens ATCC 8100; ATCC8100, read-out: MIC (growth inhibition, microdilution method)): 128 µg/mL (≈ 533 µM); MIC ([1]; ATCC15305, read-out: MIC (growth inhibition, microdilution method)): 128 µg/mL (≈ 533 µM); MIC (P. rettgeri CAP): 128 µg/mL (≈ 533 µM); MIC, P. VULGARIS [11]: 128 µg/mL (≈ 533 µM) |
| Cn1nnc(-c2cc(C(=O)O)sc2-c2ccc(F)cc2)n1 [DNM-123, 5-(4-fluorophenyl)-4-(2-methyl-2H-tetrazol-5-yl)thiophene-2-carboxylic acid] | ≤ 0.5 | 8 (≈ 26.3 µM) | 8 (≈ 26.3 µM) | 8 (≈ 26.3 µM) | > 8 | – | 8 | – | – | – | – | – | – | – | – | – | 8 (≈ 26.3 µM) | 8 (≈ 26.3 µM) | > 8 | 8 (≈ 26.3 µM) | MIC (growth inhibition, microdilution method) (E. faecalis ATCC 29212; E. faecalis ATCC 29212): 8 µg/mL (≈ 26.3 µM); MIC (growth inhibition, microdilution method) (E. faecalis ATCC 29212; E. faecalis, ATCC number not given): 8 µg/mL (≈ 26.3 µM); MIC (MRSA ATCC 33591; MRSA ATCC 33591): > 8 µg/mL; MIC (P. mirabilis ATCC 29245; [25]): > 8 µg/mL; MIC (S. marcescens ATCC 8100; [26]): 8 µg/mL (≈ 26.3 µM); MIC [1, 27]: > 8 µg/mL; MIC (P. rettgeri CAP; P. rettgeri (CAP in Table 1)): > 8 µg/mL |
| O=C(O)c1cc(-c2nn[nH]n2)cs1 [DNM-116, 4-(2H-Tetrazol-5-yl)-thiophene-2-carboxylic acid] | 16 (≈ 81.6 µM) | 16 (≈ 81.6 µM) | 8 (≈ 40.8 µM) | 8 (≈ 40.8 µM) | 32 (≈ 163 µM) | 16 (≈ 81.6 µM) | 16 | 16 (≈ 81.6 µM) | 16 (≈ 81.6 µM) | 16 (≈ 81.6 µM) | 16 (≈ 81.6 µM) | 16 (≈ 81.6 µM) | 16 (≈ 81.6 µM) | 16 (≈ 81.6 µM) | 16 (≈ 81.6 µM) | 16 (≈ 81.6 µM) | 16 (≈ 81.6 µM) | 8 (≈ 40.8 µM) | 16 (≈ 81.6 µM) | 16 (≈ 81.6 µM) | MIC (MRSA ATCC 33591; MRSA ATCC 33591): > 32 µg/mL; MIC (P. mirabilis ATCC 29245; [25]): 32 µg/mL (≈ 163 µM); MIC (S. marcescens ATCC 8100; [26]): 16 µg/mL (≈ 81.6 µM); MIC [1, 27]: 16 µg/mL (≈ 81.6 µM); MIC (P. rettgeri CAP; P. rettgeri (CAP in Table 1)): 32 µg/mL (≈ 163 µM); MIC, A. BAUMANII [14]: 16 µg/mL (≈ 81.6 µM); MIC, B. CEPACIA [15]: 16 µg/mL (≈ 81.6 µM); MIC, P. RETTGERI [16]: 16 µg/mL (≈ 81.6 µM); MIC, P. STUARTII [17]: 16 µg/mL (≈ 81.6 µM); MIC, S. MALTOPHILIA [18]: 16 µg/mL (≈ 81.6 µM) |
